Test results published in patent US20160075695A1, “BENZIMIDAZOLE DERIVATIVES AS BROMODOMAIN INHIBITORS” (Gilead Sciences, Inc., priority 2013, published 2016).
Read-outs that look alike come from different tables or passages of the source.

Assays:
BRD4-2 = target: T1, BRD4-2 (Homo sapiens, UniProt O60885); assay: HTRF (TR-FRET) assay, BRD4-2 binding to acetylated histone H4 peptide
T1 construct: made in house; host or cells: Escherichia coli
Procedure: (§1) Binding of the two tandem bromodomains, BRD4-1 and BRD4-2, to an acetylated histone H4 peptide was measured using a homogeneous time resolved fluorescence resonance energy transfer (TR-FRET) assay. […] BRD4-1 and BRD4-2 were expressed and purified from Escherichia coli as N-terminal His6-tagged proteins. An XL665 labeled anti-His antibody (Cisbio) was used to specifically bind BRD4 and a cryptate labeled streptavidin protein was used because it specifically recognized the biotinylated H4 peptide. […] After an assay reaction time of 60 minutes at 25° C., binding was measured with 2 nM crytptate labeled streptavidin and 10 nM anti-His-XL665 antibody. TR-FRET signal was detected on an Envision plate reader (Ex: 320 nm; Em: 615/665 nm; 100 us delay and 200 μs read window). […] All IC50 values represent geometric mean values of a minimum of four determinations.

BRD4-1 [1] = target: T2, BRD4-1 (Homo sapiens, UniProt O60885); assay: Alpha assay, BRD4-1 binding to acetylated histone H4 peptide
T2 construct: made in house; host or cells: Escherichia coli
Procedure: Binding of the bromodomain BRD4-I to an acetylated histone H4 peptide was measured using a bead-based Amplified Luminescent Proximity Homogeneous Assay (ALPHA). […] BRD4-I was expressed and purified from Escherichia coli as an N-terminal His6-tagged protein. Nickel-Chelate ALPHA acceptor beads (Perkin Elmer) were used to specifically bind BRD4-1 and ALPHA streptavidin donor beads (Perkin Elmer) were used because they specifically recognized the biotinylated H4 peptide. […] Assays were performed in 50 mM Hepes (pH 7.5), 150 mM NaCl, 0.1 mg/ml BSA, 0.01% (v/v) Brij, 0.5% (v/v) DMSO, 200 nM H4 peptide and 15 nM of BRD4-1 protein. After an assay reaction time of 60 minutes at 25° C., binding was measured with 20 μg/ml streptavidin donor beads and 20 μg/ml nickle-chelate acceptor beads. ALPHA signal was detected on an Envision plate reader (Ex: 320 nm; Em: 570 nm; Ex time: 180 ms). […] All IC50 values represent geometric mean values of a minimum of four determinations.

BRD4-1 [2] = target: T2, BRD4-1; assay: HTRF (TR-FRET) assay, BRD4-1 binding to acetylated histone H4 peptide
Procedure: as §1

[3] = 120 nM BRD4-2, 200 nM H4 peptide, 60 minutes at 25° C., geometric mean of a minimum of four determinations, read-out: HTRF BRD4-2 (IC50)
[4] = 15 nM BRD4-1, 200 nM H4 peptide, 60 minutes at 25° C., geometric mean of a minimum of four determinations, read-out: Alpha Assay (IC50)
[5] = 60 nM BRD4-1, 200 nM H4 peptide, 60 minutes at 25° C., geometric mean of a minimum of four determinations, read-out: HTRF BRD4-1 (IC50)

| Structure (SMILES) | IC50 (BRD4-2; [3]) [nM] | IC50 (BRD4-1 [1]; [4]) [nM] | IC50 (BRD4-1 [2]; [5]) [nM] | IC50 (BRD4-2) [nM] | IC50 (BRD4-1 [1]) [nM] | IC50 (BRD4-1 [2]) [nM] |
| --- | --- | --- | --- | --- | --- | --- |
| Cc1n[nH]c(C)c1-c1cc(-c2c(C)noc2C)cc2[nH]c(NCC3CC3)nc12 [Compound 1020-79, N-(Cyclopropylmethyl)-4-(3,5-dimethyl-1H-pyrazol-4-yl)-6-(3,5-dimethylisoxazol-4-yl)-1H-benzo[d]imidazol-2-amine] | 87.2 | 33.6 | 161 | – | – | – |
| CC/C=C(\CC)c1cc(-c2c(C)noc2C)cc2nc(C3CC3)[nH]c12 [Compound 1020-28, (E)-4-(2-Cyclopropyl-4-(hex-3-en-3-yl)-1H-benzo[d]imidazol-6-yl)-3,5-dimethylisoxazole] | 65.5 | 18.1 | 71.8 | – | – | – |
| Cc1n[nH]c(C)c1-c1cc(-c2c(C)noc2C)cc2nc(N)[nH]c12 [Compound 1020-96, 4-(3,5-Dimethyl-1H-pyrazol-4-yl)-6-(3,5-dimethylisoxazol-4-yl)-1H-benzo[d]imidazol-2-amine] | 96.9 | 53.7 | 276 | – | – | – |
| Cc1n[nH]c(C)c1-c1cc(-c2c(C)noc2C)cc2nc(C3CC3)n(C)c12 [Compound 1020-72, 4-(2-cyclopropyl-7-(3,5-dimethyl-1H-pyrazol-4-yl)-1-methyl-1H-benzo[d]imidazol-5-yl)-3,5-dimethylisoxazole] | 69.1 | 12.3 | 101 | – | – | – |
| Cc1ccc2ncccc2c1-c1cc(-c2c(C)noc2C)cc2[nH]c(C(O)CCO)nc12 (stereo not shown) [Compound 1020-89, 1-(6-(3,5-dimethylisoxazol-4-yl)-4-(6-methylquinolin-5-yl)-1H-benzo[d]imidazol-2-yl)propane-1,3-diol] | 151 | 130 | 379 | – | – | – |
| Cc1noc(C)c1-c1cc(C(O)C2CCCC2)c2nc(C3CC3)[nH]c2c1 (stereo not shown) [Compound 1020-121, Cyclopentyl(2-cyclopropyl-6-(3,5-dimethylisoxazol-4-yl)-1H-benzo[d]imidazol-4-yl)methanol] | 80.8 | 24.7 | 95.2 | – | – | – |
| Cc1noc(C)c1-c1cc(S(=O)(=O)NC2CCCC2)c2nc(NCC(F)(F)F)[nH]c2c1 [Compound 1020-148, N-Cyclopentyl-6-(3,5-dimethylisoxazol-4-yl)-2-(2,2,2-trifluoroethylamino)-1H-benzo[d]imidazole-4-sulfonamide] | 180 | – | 186 | – | – | – |
| Cc1nc2cc(-c3c(C)noc3C)cc(-c3c(C)n[nH]c3C)c2[nH]1 [Compound 1020-77, 4-(7-(3,5-Dimethyl-1H-pyrazol-4-yl)-2-methyl-1H-benzo[d]imidazol-5-yl)-3,5-dimethylisoxazole] | 64.8 | 42.7 | 244 | – | – | – |
| Cc1ccnc(C)c1-c1cc(-c2c(C)noc2C)cc2nc(C3CC3)[nH]c12 [Compound 1020-57, 4-(2-Cyclopropyl-7-(2,4-dimethylpyridin-3-yl)-1H-benzo[d]imidazol-5-yl)-3,5-dimethylisoxazole] | 54.4 | 22.6 | 109 | – | – | – |
| Cc1n[nH]c(C)c1-c1cc(-c2c(C)noc2C)cc2[nH]c(NC3CC3)nc12 [Compound 1020-81, N-Cyclopropyl-4-(3,5-dimethyl-1H-pyrazol-4-yl)-6-(3,5-dimethylisoxazol-4-yl)-1H-benzo[d]imidazol-2-amine] | 119 | 50.7 | 169 | – | – | – |
| Cc1noc(C)c1-c1cc(NC2CCCC2)c2nc(C3CC3)[nH]c2c1 [Compound 1020-50, N-Cyclopentyl-2-cyclopropyl-6-(3,5-dimethylisoxazol-4-yl)-1H-benzo[d]imidazol-4-amine] | 318 | 125 | 299 | – | – | – |
| COc1nc2c(-c3c(C)ccc4ncccc34)cc(-c3c(C)noc3C)cc2[nH]1 [Compound 1020-90, 4-(2-methoxy-4-(6-methylquinolin-5-yl)-1H-benzo[d]imidazol-6-yl)-3,5-dimethylisoxazole] | 121 | 29.9 | 110 | – | – | – |
| CSc1nc2c(S(=O)(=O)NC3CCCC3)cc(-c3c(C)noc3C)cc2[nH]1 [Compound 1020-4, N-Cyclopentyl-6-(3,5-dimethylisoxazol-4-yl)-2-(methylthio)-1H-benzo[d]imidazole-4-sulfonamide] | 230 | – | 337 | – | – | – |
| Cc1noc(C)c1-c1cc(-c2cccnc2-c2ccccc2)c2nc(C3CC3)[nH]c2c1 [Compound 1020-19, 4-(2-Cyclopropyl-4-(2-phenylpyridin-3-yl)-1H-benzo[d]imidazol-6-yl)-3,5-dimethylisoxazole] | 172 | 28 | 134 | – | – | – |
| Cc1noc(C)c1-c1cc(C(O)(c2ccccc2)c2ccccc2)c2nc(C3CC3)[nH]c2c1 [Compound 1020-102, (2-Cyclopropyl-6-(3,5-dimethylisoxazol-4-yl)-1H-benzo[d]imidazol-4-yl)diphenylmethanol] | 75.7 | 14.3 | 101 | – | – | – |
| CCC(CC)c1cc(-c2c(C)noc2C)cc2[nH]c(C3CC3)nc12 [Compound 1020-120, 4-(2-Cyclopropyl-4-(pentan-3-yl)-1H-benzo[d]imidazol-6-yl)-3,5-dimethylisoxazole] | – | – | – | 76.1 | 39.7 | 88.5 |
| CCC(O)(CC)c1cc(-c2c(C)noc2C)cc2c1nc(C1CC1)n2C [Compound 1020-132, 3-(2-Cyclopropyl-6-(3,5-dimethylisoxazol-4-yl)-1-methyl-1H-benzo[d]imidazol-4-yl)pentan-3-ol] | 883 | 573 | 610 | – | – | – |
| Cc1n[nH]c(C)c1-c1cc(-c2c(C)noc2C)cc2nc(C3CC3(F)F)[nH]c12 (stereo not shown) [Compound 1020-78, 4-(2-(2,2-Difluorocyclopropyl)-7-(3,5-dimethyl-1H-pyrazol-4-yl)-1H-benzo[d]imidazol-5-yl)-3,5-dimethylisoxazole] | 94.1 | 25.1 | 161 | – | – | – |
| Cc1cnn(C)c1-c1cc(-c2c(C)noc2C)cc2nc(C3CC3)[nH]c12 [Compound 1020-12, 4-(2-Cyclopropyl-7-(1,4-dimethyl-1H-pyrazol-5-yl)-1H-benzo[d]imidazol-5-yl)-3,5-dimethylisoxazole] | 69.2 | 46.2 | 138 | – | – | – |
| Cc1ccc2ncccc2c1-c1cc(-c2c(C)noc2C)cc2[nH]c(-c3cnn(C)c3)nc12 [Compound 1020-88, 3,5-Dimethyl-4-(2-(1-methyl-1H-pyrazol-4-yl)-4-(6-methylquinolin-5-yl)-1H-benzo[d]imidazol-6-yl)isoxazole] | 131 | 15.9 | 104 | – | – | – |
| Cc1ccnc(C)c1-c1cc(-c2c(C)noc2C)cc2[nH]cnc12 [Compound 1020-84, 4-(4-(2,4-Dimethylpyridin-3-yl)-1H-benzo[d]imidazol-6-yl)-3,5-dimethylisoxazole] | 234 | 277 | 481 | – | – | – |
| Cc1noc(C)c1-c1cc(S(=O)(=O)NC2CCCC2)c2nc(NCC3CC3)[nH]c2c1 [Compound 1020-1, N-Cyclopentyl-2-(cyclopropylmethylamino)-6-(3,5-dimethylisoxazol-4-yl)-1H-benzo[d]imidazole-4-sulfonamide] | 97.6 | – | 201 | – | – | – |
| Cc1ccc2ncccc2c1-c1cc(-c2c(C)noc2C)cc2nc(C3CC3)n(C)c12 [Compound 1020-74, 4-(2-Cyclopropyl-1-methyl-7-(6-methylquinolin-5-yl)-1H-benzo[d]imidazol-5-yl)-3,5-dimethylisoxazole] | 112 | 18.9 | 97.1 | – | – | – |
| Cc1noc(C)c1-c1cc(N2C(=O)CCC2C)c2nc(C3CC3)[nH]c2c1 (stereo not shown) [Compound 1020-136, 1-(2-Cyclopropyl-6-(3,5-dimethylisoxazol-4-yl)-1H-benzo[d]imidazol-4-yl)-5-methylpyrrolidin-2-one] | 727 | 513 | 823 | – | – | – |
| Cc1noc(C)c1-c1cc(S(=O)(=O)NC2CCCC2)c2nc(Cc3ccccc3)[nH]c2c1 [Compound 1020-141, 2-Benzyl-N-cyclopentyl-6-(3,5-dimethylisoxazol-4-yl)-1H-benzo[d]imidazole-4-sulfonamide] | 111 | – | 704 | – | – | – |
| Cc1noc(C)c1-c1cc(S(=O)(=O)NC2CCCC2)c2nc([S+](C)[O-])[nH]c2c1 (stereo not shown) [Compound 1020-5, N-Cyclopentyl-6-(3,5-dimethylisoxazol-4-yl)-2-(methylsulfinyl)-1H-benzo[d]imidazole-4-sulfonamide] | 357 | – | 616 | – | – | – |
